For one data set, the system named is ACE-I. To be noted: Chenopodium quinoa Willd peptide; ref Zheng et al. [24]; read-out: ACE-I inhibition IC50; cited from earlier work. The text has this:
(§1) Yudho-Sutopo et al. reported the ACE-I inhibitory activity of four synthetic peptides from pearl garlic (DHSTAVW, KLAKVF, KLSTAASF, and KETPEAHVF). […] According to Yudho-Sutopo et al., the hydrophobic amino acid in the C-terminal and amino acids with a positively charged side-chain amino group, like in DHSTAVW, are determinants in the inhibition of ACE-I. Furthermore, a study by Zheng et al. reported an ACE-I inhibitory peptide – RGQVIYVL – from Chenopo ...

The conditions of data set [1]: ref Zheng et al. [24]; cited from earlier work.
Text: as §1

A further data set has as its system human DPP-IV. Kind of data set: DPP-IV inhibitory activity. The conditions noted are these: H-Gly-Pro-pNA, 37 °C, mean ± SD, n = 9. Type of data set: biochemical. As for the experimental part:
Dipeptidyl peptidase-IV (DPP-IV) inhibitory activity was measured following the method by Vilcacundo et al., with slightly modifications. […] For the negative control 70 μL of Tris Buffer was added. Finally, 100 μL of substrate (H-Gly-Pro-pNA, 100 mM) was added to all wells. The reaction was performed at 37 °C in the microplate reader (BioTek Instruments, Winooski, VT, USA), and the reaction was read at 405 nm for 30 min, with reading intervals of 2 min. Finally, data were plotted and fitted to a logarithmic regression to obtain dose–response curves.

Data set [2] can be described thus: Oxygen radical absorbance capacity (ORAC) assay. To be noted: AAPH, fluorescein, 37 °C, 150 min. As for the experimental part: Oxygen radical absorbance capacity (ORAC) assay was performed following the method of Carvalho-Oliveira et al. Briefly, 30 μL of peptide (different concentrations 50–1000 μM) or standard (Trolox at 0–160 μM) were placed in a black 96-well plate. The reaction mixture comprised 180 μL of fluorescein (116.9 nM) and 90 μL of 2,2’-azobis(2-amidinopropane) dihydrochloride (AAPH) (40 mM). Finally, the fluorescence was recorded every 2 min for 150 min at excitation and emission wavelengths of 485 and 520 nm, respectively. All reactions were performed at 37 °C. The results were expressed as μmol Trolox equivalent (TE)/μmol of peptide. Quantification and interpretation of the data were done by Gen5 software, version 1.1 (BioTek Instruments, Winooski, VT, USA).

For data set [3], the system named is porcine pancreatic α-amylase (PPA). Kind of data set: α-Amylase inhibition. Type of data set: biochemical. To be noted: CNPG3 substrate, 405 nm, 37 °C, mean ± SD, n = 9. As for the experimental part:
α-Amylase inhibition activity was performed using the 3,5-dinitrosalicylic acid (DNS) assay according to Zulfiqar et al. […] Then, 50 μL of substrate (2-chloro-4-nitro-[…] (CNPG3) (2 mM)) was added per well. Finally, absorbance was recorded at 405 nm (SPARK-10M, TECAN, Switzerland) at 37 °C for 10 min in 1-min intervals. The percentage of enzyme inhibition was calculated in relation to 100% enzymatic activity in the negative control (phosphate-buffered saline (PBS) buffer, enzyme, and substrate).

The nature of a further data set: Fe^2+ chelation assay. The conditions noted are these: 125 μM; ferrozine, pH 4.9, 37 °C, 10 min; mean ± SD, n = 9. As for the experimental part: Fe^2+ chelation assay was measured according to Sanchez-Velazquez et al. with slightly modifications. 25 μL of sample (synthetic peptides, […]) or positive control (EDTA, 0.1 μg/μL) was added to 225 μL of buffer (sodium acetate, 100 mM, pH 4.9), then 15 μL of iron solution (0.1%, w/v) and 9 μL of ferrozine (40 mM) were added to start the reaction. For the blank well, 250 μL of buffer was added to the iron solution and ferrozine. The reaction was incubated 10 min at 37 °C and then read at 562 nm (SPARK-10M, TECAN, Switzerland). Fe^2+ chelating activity was calculated as described previously for copper.

A further data set is described as follows: Cu^2+ chelation assay. The conditions noted are these: pyrocatechol violet, pH 6.0, 37 °C, 10 min, mean ± SD, n = 9. As for the experimental part:
Cu^2+ chelation assay was determined according to Sanchez-Velazquez et al., with slight modifications. Briefly, 21 μL of sample (synthetic peptides, […]) or positive control (EDTA, 0.1 μg/μL) was added to 185 μL of buffer (sodium acetate, 50 mM, pH 6.0), and then 15 μL of copper solution (10 μg) and 9 μL of pyrocatechol violet (2 mM) were added for the reaction. For the blank well, 205 μL of buffer was added to the copper and pyrocatechol violet reaction mixture. The reaction was incubated for 10 min at 37 °C and then read at 632 nm (SPARK-10M, TECAN, Switzerland). Cu^2+ chelating activity was calculated as: %Chelatingactivity=Abscontrol−Abssample/Abscontrol×100

Data set [4] concerns 15-LOX enzyme (soybean lipoxygenase). Kind of data set: Lipoxygenase inhibitor screening assay (LOX). Type of data set: biochemical. To be noted: 31.25 μM; linoleic acid 1 mM, RT, 490 nm. As for the experimental part: Lipoxygenase inhibitory activity assay (LOX) was determined following the manufacturer’s instructions (#760700). Thus, peptide concentrations (31.25–125 μM) were prepared with the assay buffer and tested in triplicate. First, 10 μL of the peptides at each concentration was mixed with 90 μL of 15-LOX enzyme (soybean lipoxygenase) in a 96-well plate. Then, three wells each contained assay buffer as blank (without enzyme), assay buffer as vehicle (with enzyme), and 15-LOX as positive control. Afterward, 10 μL of linoleic acid (1 mM) (substrate) was added to all wells and shaken for 10 min at RT. Finally, 100 μL of chromogen was added to all wells, and the plate was sealed and shaken for an additional 5 min at RT. The final reaction was measured at 490 nm, and the percentage of inhibition was calculated as. %inhibition=[1−Correctedvaluesofpeptide/Correctedvaluesofvehicle]×100

Data set [5] relates to rat intestinal acetone α-glucosidase. Kind of data set: α-Glucosidase inhibition. Type of data set: biochemical. As for the experimental part: α-Glucosidase inhibition assay was measured following the method of Vilcacundo et al., with slightly modifications. First, 100 μL of sample ([…]), positive control (1 mM acarbose), and/or negative control (Milli-Q-water), were added to 50 μL of rat intestinal acetone α-glucosidase (1 U/mL in 0.1 M, maleate buffer pH 6.9), and the mixture was incubated at 37 °C for 5 min. Then, 50 μL of substrate (2 mM maltose) was added into each tube, which was performed in a Thermomixer (37 °C, 1000 rpm, for 30 min). Finally, the reaction was stopped at 100 °C for 5 min. The glucose concentration in the reaction was measured using GOPOD (glucose oxidase/peroxidase) from Megazyme, with absorbance measured at 560 nm (Gen5 software, version 1.1, BioTek Instruments, Winooski, VT, USA). The percentage of inhibition was calculated relative to the non-inhibited control (negative control).

For data set [6], the system named is angiotensin I converting enzyme. The data set can be described thus: ACE-I inhibitory activity (fluorometric kit CS0002). Type of data set: biochemical. The conditions noted are these: fluorometric kit, 37 °C, mean ± SD, n = 9. As for the experimental part: ACE-I inhibitory assay was determined by ACE-I activity assay kit (fluorometric, CS0002). This assay is based on the hydrolysis of angiotensin I by ACE to yield angiotensin II. Briefly, all reagents were diluted in the assay buffer, and a total of 50 μL of peptide sample, positive control (captopril PHR1307), and assay buffer (blank) were added to a 96-well black plate. The standard was added at 0, 0.1, 0.2, 0.3, 0.4, 0.5, 0.6, and 0.8 nmol and adjusted to a final volume of 100 μL. […] Finally, fluorescence (λex, 320 nm; λem, 405 nm) was measured in five cycles for 5 min. Linear regressions were determined to calculate the enzymatic activity for each sample per concentration. Thus, one unit was defined as the amount of enzyme that releases 1 nmol of fluorescent substrate in 1 min at 37 °C. Finally, the inhibition (%) of each peptide and positive control was determined using regression analysis of the corresponding dose–response curves.

The next data set concerns α-glucosidase. To be noted: 250 μM; ref Vilcacundo et al. [40]; cited from earlier work. The text has this:
The inhibitory effects of quinoa-derived peptides (YDDER, NIYQIS, and QDQHQKIR) toward α-glucosidase are depicted in Table .

Data set [7] can be described thus: Trolox equivalent antioxidant capacity (TEAC, ABTS radical cation). To be noted: 734 nm, 6 min, mean ± SD, n = 9. As for the experimental part: The Trolox equivalent antioxidant capacity (TEAC) analysis was performed as described by Sanchez-Velazquez et al. In order to produce ABTS (2,2’-azino-bis(3-ethylbenzthiazoline-6-sulfonic acid) radical cation (ABTS^ ●+ ), ABTS (7 mM) were mixed with potassium persulfate (2.45 mM) in the dark at room temperature (RT 18–21 °C) for 16 h. […] Finally, the reaction was measured at 0 and 6 min at 734 nm (SPARK-10M, TECAN, Switzerland). The percentage of inhibition was calculated as follows: %TEACinhibition=Abs sample0min−Abs sample6min/Abs sample0min−(Abs blank0min−Abs blank6min/Abs blank0min)×100

Another data set relates to α-amylase. The conditions noted are these: ref Zhou et al. [70]; cited from earlier work. The text has this:
As α-amylase plays a significant role in T2DM, this study investigated the inhibitory effects of synthetic quinoa peptides on this enzyme.

The mark [8] stands for this setting: 300 μM, 2 mM maltose, pH 6.9, 37 °C, mean ± SD, n = 9.
Where [9] appears, read: 400 μM, 2 mM maltose, pH 6.9, 37 °C, mean ± SD, n = 9.
Setting [10] is: 500 μM, 2 mM maltose, pH 6.9, 37 °C, mean ± SD, n = 9.

Marks after values point to notes of the source that are not given here.

The IC50 is the concentration that inhibits the measured activity by half. One may read the inhibition as how much of the control response was suppressed.

Turning to RGQVIYVL, in the data set on ACE-I, the IC50 was 38.2 µM. For the same substance, in data set [1], the hydrophobic residue content is on record as 62.50%.
“QDQHQKIR [quinoa 11S globulin peptide, custom-synthesized by GenScript, purity 95%]”: the DPP-IV inhibition result with human DPP-IV (125 μM) is “ND (no inhibitory effect was observed at the given concentration)”; in the data set with human DPP-IV (250 μM), “ND (no inhibitory effect was observed at the given concentration)”; in the data set on human DPP-IV (500 μM), 5.26 ± 0.30^c %. For the same substance, the ORAC in data set [2] was 0.02 μmol TE/μmol peptide; in data set [2] (mean ± SD, n = 9), 0.02 ± 0.00^c μM TE/μM Peptide. The α-amylase inhibition in data set [3] (300 μM) is recorded as 18.43 ± 0.33^a %; in [3] (500 μM), 15.37 ± 0.35^b %. In addition, the inhibition in data set [3] (400 μM) worked out at 15.6 ± 0.34%; in data set [6] (250 μM), 9.75 ± 0.21%. Besides, the “Fe^2+ chelating activity” value in the data set “Fe^2+ chelation assay” is given as 5.11 ± 1.0%. Further, the “Cu^2+ chelating activity” value is recorded as 39.79 ± 1.4% in the data set “Cu^2+ chelation assay” (15.62 μM), 37.46 ± 0.26% in “Cu^2+ chelation assay” (31.25 μM) and 40.8 ± 0.31% in “Cu^2+ chelation assay” (62.5 μM). The LOX inhibition in data set [4] is given as 8.44%. Also, the α-glucosidase inhibition result in data set [5] (setting [8]) is listed as “ND (no inhibitory effect was observed at the given concentration)”; in data set [5] (setting [9]), “ND (no inhibitory effect was observed at the given concentration)”; in data set [5] (setting [10]), “ND (no inhibitory effect was observed at the given concentration)”; in [5] (any of the tested concentrations (100–500 μM)), “did not present any α-glucosidase inhibition”. For the same substance, in data set [6] (125 μM), the ACE-I inhibition is 6.8 ± 0.56^f %.
As to “IQEGGLT [quinoa-derived peptide reported by Vilcacundo et al]”, in the data set on α-glucosidase, the α-glucosidase inhibition is on record as 55.85%.
Take “YDDER [quinoa 11S globulin peptide, custom-synthesized by GenScript, purity 95%]”: the results for the DPP-IV inhibition entry in the data set with human DPP-IV (125 μM), in the data set with human DPP-IV (250 μM) and with human DPP-IV (500 μM) were “ND (no inhibitory effect was observed at the given concentration)”, “ND (no inhibitory effect was observed at the given concentration)” and 3.44 ± 0.50^d %, respectively. Further, the results for the “TEAC inhibition (ABTS^●+ inhibition)” value in data set [7] (250 μM) and in [7] (500 μM) were 7.45 ± 0.19% and 8.7 ± 0.50%, respectively. For the same substance, the ORAC in data set [2] is 0.24 μmol TE/μmol peptide; in data set [2] (mean ± SD, n = 9), 0.24 ± 0.01^b μM TE/μM Peptide. For the same substance, the figures for the α-amylase inhibition in data set [3] (300 μM), in data set [3] (400 μM) and in data set [3] (500 μM) were 12.20 ± 1.67^c %, 11.43 ± 2.04^c % and 6.66 ± 0.38^d %, respectively. The “Fe^2+ chelating activity” value in the data set “Fe^2+ chelation assay” was 8.8 ± 1.0%. The LOX inhibition in data set [4] was 22.64%. Besides, the α-glucosidase inhibition is recorded as 8.48 ± 0.94^c % in data set [5] (setting [8]), 8.33 ± 0.94^c % in [5] (setting [9]) and 14.86 ± 0.89^a % in data set [5] (setting [10]). The inhibition in data set [6] (125 μM) stood at 21.1 ± 0.19%. For the same substance, the ACE-I inhibition is recorded as 24.1 ± 0.18^c % in [6] (250 μM) and 24.3 ± 0.15^c % in [6] (500 μM).
As to “MMFPH [quinoa-derived peptide reported by Zhou et al]”, the α-amylase inhibition entry in the data set on α-amylase is listed as “stronger α-amylase inhibition”.
